Entries after “also recorded” stand apart in the source; their conditions may differ.
Key:
Type in all cases: in vivo
wild-type mice [1] = test: APAP (acetaminophen) induced liver inflammation, liver injury and mortality; details: by down regulation of pro-inflammatory cytokines
Method: APAP (Sigma, Mo.) solution was made fresh for each experiment in PBS at 20 mg/ml and heated in a water bath to 55° C. to dissolve. APAP was dosed at 500 mg/kg and injected I.P after 15 hrs of starvation. Animals were euthanized by ketamine/xylazine injection at 12 hours for collection of serum, isolation of liver lymphocytes or collection of liver tissue for histology, or they were observed every four hours for 72 hours until they reached criteria for euthanasia (lack of response to stimuli or lack of righting reflex). FIGS. 3A and B show less hemorrhage and cell death in the livers of mice lacking TLR9 compared to wild-type and FIGS. 3C and D show a similar affect of TLR7. […] The data was generated by a single ip injection of APAP at a dose of 500 mg/kg. Data in Figures A to D was generated 12 hours after APAP and E and F is over a 3 day period.
Data was generated 12 hours after injection of APAP. […] The data was generated over 72 hours (3 days). […] Data was generated from 23 hours after injection of APAP.

C57BL/6 mice = test: Foreign body reaction to 150 micron polystyrene beads injected into the abdominal cavity; details: 24 hours, FIG. 2
Method: (§1) Two models of the foreign body reaction were tested. In the first model, injection of 150 micron polystyrene beads into the abdominal cavity of C57BL/6 was followed by analysis of cellular infiltrate 24 hours later. In the second model, implantation of a 6 mm disc of silicone subcutaneously was followed by analysis of the foreign body reaction about one month later. The above two models were performed on mice on normal drinking water or with aspirin (60 mg/ml). […] The experiment evidenced that the cellular infiltrate at 24 hours was comprised principally of immune cells (neutrophils and macrophages).

wild-type mice [2] = test: Foreign body reaction to subcutaneously implanted 6 mm silicone disc; details: silicone implant, one month, aspirin 60 mg/ml in drinking water, P<0.05 compared to no ASA, FIG. 7
Method: as §1, with “macrophages). […] A 6 mm disc of silicone was implanted subcutaneously in experimental mice (see above), followed by analysis of the foreign body reaction around one month later. The mice were placed on normal drinking water or water with aspirin at a concentration of 60 mg/ml. […] Wild-type mice were implanted with a silicone capsule on the side of the muscle and on the side of the skin. The mice were either given regular drinking water or drinking water containing 60 mg/ml aspirin. After one month, the mice were then analyzed to determine if there was an impact on the foreign body reaction which occurred as a consequence of implanting the silicone capsulate.” for “macrophages).”

CC(=O)Oc1ccccc1C(=O)O [aspirin, acetylsalicylic acid]
effect on acetaminophen-induced liver injury (wild-type mice [1]): protective effect
foreign body reaction to polystyrene beads (number of cells in cellular infiltrate) (C57BL/6 mice; continuous aspirin in drinking water (60 mg/ml)): substantially diminished; also recorded: significantly reduced
composition of the cellular infiltrate (neutrophils and macrophages) (C57BL/6 mice; continuous aspirin): not significantly altered
thickness of the foreign body reaction capsule on the side of the muscle and on the side of the skin (wild-type mice [2]): significant reduction
